We go through 22 molecules from patent US10800757B2, “Inhibitors of TRPC6” (Boehringer Ingelheim International GmbH, priority 2017, dated 2020).

For orientation: pIC50 means −log10 of the IC50, conventionally taken in molar units.

Each structure is given as a SMILES string. pIC50: −log10 of the molar value. A value given as a limit tells only on which side of the number the result lay.

For this assay, the target named is TRPC6 (Homo sapiens (Human), UniProt Q9Y210). Nature of the assay: High throughput screening assay: fluorescent calcium (Fluo4/AM) assay of TRPC6 channel activation by GSK1702934A in HEK293/TREx cells. The format is cell-based. Particulars: HEK293/TREx cells stably transfected with TRPC6; agonist GSK1702934A; 7 concentrations 20 μM to 0.027 μM, triplicate. In short, it runs like this: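 HEK293/TREx cells stably carrying a TRPC6 construct were induced with 1 μg/ml tetracycline, plated at ~35,000 cells/well in 384-well CellBind plates, and loaded with 0.5 μM Fluo4/AM in Ringer's with 1% Pluronic F-127. Compounds were added 2 minutes before 125 nM GSK1702934A in high-Ca2+ Ringer. Fluorescence was read on a Hamamatsu FDSS 6000, normalized to controls, and fitted for IC50 from triplicates.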
TRPC6, sequence (Q9Y210 whole entry, species assumed): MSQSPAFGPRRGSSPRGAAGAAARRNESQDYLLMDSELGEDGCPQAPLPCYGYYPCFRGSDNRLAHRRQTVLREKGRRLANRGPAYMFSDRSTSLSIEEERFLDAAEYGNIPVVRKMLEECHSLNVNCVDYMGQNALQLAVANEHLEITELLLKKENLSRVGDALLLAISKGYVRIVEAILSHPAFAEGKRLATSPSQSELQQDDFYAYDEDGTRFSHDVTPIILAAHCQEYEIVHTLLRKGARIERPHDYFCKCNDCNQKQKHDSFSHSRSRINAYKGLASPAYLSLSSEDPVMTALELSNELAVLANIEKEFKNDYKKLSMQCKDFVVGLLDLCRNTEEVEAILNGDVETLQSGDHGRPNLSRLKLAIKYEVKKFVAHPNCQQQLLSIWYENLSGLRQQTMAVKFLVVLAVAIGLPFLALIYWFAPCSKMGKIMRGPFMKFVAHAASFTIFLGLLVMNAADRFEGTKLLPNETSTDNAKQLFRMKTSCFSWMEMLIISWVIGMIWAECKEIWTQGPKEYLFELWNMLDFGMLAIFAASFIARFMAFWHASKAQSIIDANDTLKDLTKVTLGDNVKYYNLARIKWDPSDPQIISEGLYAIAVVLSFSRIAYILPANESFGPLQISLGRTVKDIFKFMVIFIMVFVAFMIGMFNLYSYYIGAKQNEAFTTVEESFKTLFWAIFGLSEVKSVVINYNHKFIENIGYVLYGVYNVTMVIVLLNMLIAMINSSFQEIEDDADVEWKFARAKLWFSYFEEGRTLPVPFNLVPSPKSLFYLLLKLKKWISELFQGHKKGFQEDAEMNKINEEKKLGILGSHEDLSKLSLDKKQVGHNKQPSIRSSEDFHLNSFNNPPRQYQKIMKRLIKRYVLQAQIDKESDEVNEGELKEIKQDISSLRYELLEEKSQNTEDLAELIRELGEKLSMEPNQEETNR
As for `COc1ccc(Oc2cnc(C(=O)N3CCC(c4cnc(N)cc4OC)CC3)cc2OC)cc1` [Compound 28, (6-Amino-4-methoxy-3′,4′,5′,6′-tetrahydro-2′H-[3,4′]bipyridinyl-1′-yl)-[4-methoxy-5-(4-methoxy-phenoxy)-pyridin-2-yl]-methanone], the pIC50 was 7.00. In the case of `COc1cc(C(=O)N2CCC(c3ccc(N)nn3)CC2)ncc1Oc1ccc(OC(C)C)cc1` [Compound 6, [4-(6-Amino-pyridazin-3-yl)-piperidin-1-yl]-[5-(4-isopropoxy-phenoxy)-4-methoxy-pyridin-2-yl]-methanone], the pIC50 was 7.57. With `COc1cc(C(=O)N2CCC(c3cnc(N)cc3OC)CC2)ncc1OCc1ccccc1F` [Compound 19, (6-Amino-4-methoxy-3′,4′,5′,6′-tetrahydro-2′H-[3,4′]bipyridinyl-1′-yl)-[5-(2-fluoro-benzyloxy)-4-methoxy-pyridin-2-yl]-methanone], the pIC50 is 7.49. The figure for `COc1cc(C(=O)N2CCC(c3ccc(N)nn3)CC2)ncc1Oc1ccc(F)cc1` [Compound 17, 6-{1-[5-(4-Fluorophenoxy)-4-methoxypyridine-2-carbonyl]piperidin-4-yl}pyridazin-3-amine] is 7.54. The figure for `COc1cc(C(=O)N2CCC(c3ccc(N)nn3)CC2)ncc1OCCC1CC1` [Compound 67, [4-(6-Amino-pyridazin-3-yl)-piperidin-1-yl]-[5-(2-cyclopropyl-ethoxy)-4-methoxy-pyridin-2-yl]-methanone] is 6.25; for `COc1cc(C(=O)N2CCN(c3cnc(N)cc3OC)CC23CC3)ncc1Oc1ccccc1` [Compound 8, [7-(6-Amino-4-methoxy-pyridin-3-yl)-4,7-diaza-spiro[2.5]oct-4-yl]-(4-methoxy-5-phenoxy-pyridin-2-yl)-methanone] it is 7.57. As for `CCOc1cnc(C(=O)N2CCC(c3cnc(N)cc3OC)CC2)cc1OC` [Compound 65, (6-Amino-4-methoxy-3′,4′,5′,6′-tetrahydro-2′H-[3,4′]bipyridinyl-1′-yl)-(5-ethoxy-4-methoxy-pyridin-2-yl)-methanone], the pIC50 was 6.08.

Take `COc1cc(N)ncc1N1CCN(C(=O)c2ccc(Oc3ccccc3)cn2)[C@@H]([C@H](C)O)C1` [Compound 58, (1S)-1-[(2R)-4-(6-amino-4-methoxypyridin-3-yl)-1-(5-phenoxypyridine-2-carbonyl)piperazin-2-yl]ethan-1-ol]: the pIC50 is 7.00. The figure for `CCOc1cc(N)nnc1C1CCN(C(=O)c2cc(OC)c(Oc3ccccc3)cn2)CC1` [Compound 85, [4-(6-Amino-4-ethoxy-pyridazin-3-yl)-piperidin-1-yl]-[4-methoxy-5-(phenoxy)-pyridin-2-yl]-methanone] is 6.49; for `COc1ccc(Oc2cnc(C(=O)N3CCC(c4ccc(N)nn4)CC3)cc2OC)cc1` [Compound 44, [4-(6-Amino-pyridazin-3-yl)-piperidin-1-yl]-[4-methoxy-5-(4-methoxy-phenoxy)-pyridin-2-yl]-methanone] it is 6.85; for `COc1cc(C(=O)N2CCC(c3ccc(N)nn3)CC2)ncc1Oc1ccc(OC2CC2)cc1` [Compound 40, [4-(6-Amino-pyridazin-3-yl)-piperidin-1-yl]-[5-(4-cyclopropoxy-phenoxy)-4-methoxy-pyridin-2-yl]-methanone] it is 6.77. The figure for `CCCOc1cnc(C(=O)N2CCC(c3ccc(N)nn3)CC2)cc1OC` [Compound 76, [4-(6-Amino-pyridazin-3-yl)-piperidin-1-yl]-(4-methoxy-5-propoxy-pyridin-2-yl)-methanone] is 5.74. Take `COc1cc(C(=O)N2CCN(c3cnc(N)cc3OC)C[C@H]2CO)ncc1Oc1ccc(F)cc1` [Compound 63, [(S)-4-(6-Amino-4-methoxy-pyridin-3-yl)-2-hydroxymethyl-piperazin-1-yl]-[5-(4-fluoro-phenoxy)-4-methoxy-pyridin-2-yl]-methanone]: the pIC50 is 6.17.

For the molecule `COc1cc(C(=O)N2CCN(c3cnc(N)cc3OC)C[C@@H]2CO)ncc1Oc1ccc(F)cc1` [Compound 42, [(R)-4-(6-Amino-4-methoxy-pyridin-3-yl)-2-hydroxymethyl-piperazin-1-yl]-[5-(4-fluoro-phenoxy)-4-methoxy-pyridin-2-yl]-methanone], the negative-log IC50 (pIC50) is 6.85. The figure for `COc1cc(C(=O)N2CCN(c3cnc(N)cc3C)C[C@@H]2CO)ncc1Oc1ccccc1` [Compound 18, [(R)-4-(6-Amino-4-methyl-pyridin-3-yl)-2-hydroxymethyl-piperazin-1-yl]-(4-methoxy-5-phenoxy-pyridin-2-yl)-methanone] is 7.51; for `COc1cc(C(=O)N2CCC(c3nnc(N)cc3C)CC2)ncc1OCC1CC1` [Compound 78, [4-(6-Amino-4-methyl-pyridazin-3-yl)-piperidin-1-yl]-(5-cyclopropylmethoxy-4-methoxy-pyridin-2-yl)-methanone] it is 5.55. Next, `COc1cc(C(=O)N2CCC(c3nnc(N)cc3OC)CC2)ncc1Oc1ccc(C(F)(F)F)cc1` [Compound 56, [4-(6-Amino-4-methoxy-pyridazin-3-yl)-piperidin-1-yl]-[4-methoxy-5-(4-trifluoromethyl-phenoxy)-pyridin-2-yl]-methanone]: 6.54. Next, `COc1cc(C(=O)N2CCC(c3ccc(N)nn3)CC2)ncc1Oc1ccc(OC(F)(F)F)cc1` [Compound 80, [4-(6-Amino-pyridazin-3-yl)-piperidin-1-yl]-[4-methoxy-5-(4-trifluoromethoxy-phenoxy)-pyridin-2-yl]-methanone]: above 7.57. On to `COc1cc(C(=O)N2C3COCC2CC(c2cnc(N)cc2OC)C3)ncc1Oc1ccccc1` (stereo not shown) [Compound 68, [7-(6-Amino-4-methoxy-pyridin-3-yl)-3-oxa-9-aza-bicyclo[3.3.1]non-9-yl]-(4-methoxy-5-phenoxy-pyridin-2-yl)-methanone], for which the pIC50 was 6.20. The figure for `COc1cc(C(=O)N2CCC(c3cnc(N)cc3OC)CC2)ncc1OCC(C)C` [Compound 39, 4-Methoxy-5-{1-[4-methoxy-5-(2-methylpropoxy)pyridine-2-carbonyl]piperidin-4-yl}-pyridin-2-amine trifluoroacetic acid] is 6.77; for `COc1cc(C(=O)N2CCC(c3ccc(N)nn3)CC2)ncc1Oc1ccc(OC(F)F)cc1` [Compound 54, [4-(6-Amino-pyridazin-3-yl)-piperidin-1-yl]-[5-(4-difluoromethoxy-phenoxy)-4-methoxy-pyridin-2-yl]-methanone] it is 6.66. Next, `CCOc1cc(C(=O)N2CCC(c3ccc(N)nn3)CC2)ncc1Oc1ccc(F)cc1` [Compound 88, [4-(6-Amino-pyridazin-3-yl)-piperidin-1-yl]-[5-(4-fluoro-phenoxy)-4-ethoxy-pyridin-2-yl]-methanone]: 6.12.
